Data on 17 compounds can be found in patent publication US5543415A, “Antidepressants” (Kyowa Hakko Kogyo Co., Ltd., priority 1992, dated 1996).

Some results are limits rather than exact numbers.

In this data set the test system is ddY-strain male mice. Description: Acute Toxicity Test (minimum lethal dose, oral). The format is in vivo. Particulars: seven days after administration. The protocol:
Test compounds were orally administered to groups of ddY-strain male mice weighing 20±1 g, each group consisting of three mice. Seven days after the administration, minimum lethal dose (MLD) of each compound was determined by observing the mortality.

As for `CCn1c(=O)c2c(nc(/C=C/c3cc(OC)c(OC)cc3Br)n2C)n(CC)c1=O` [Compound 118, (E)-8-(2-Bromo-4,5-dimethoxystyryl)-1,3-diethyl-7-methylxanthine], the “MLD (minimum lethal dose)” value is above 100 mg/kg.
As for `CCn1c(=O)c2[nH]c(/C=C/c3cc(OC)c(OC)cc3[N+](=O)[O-])nc2n(CC)c1=O` [Compound 119, (E)-8-(4,5-Dimethoxy-2-nitrostyryl)-1,3-diethylxanthine], the “MLD (minimum lethal dose)” value was above 100 mg/kg.
For the compound `CCn1c(=O)c2c(nc(/C=C/c3cc(OC)c(OC)cc3[N+](=O)[O-])n2C)n(CC)c1=O` [Compound 120, (E)-8-(4,5-Dimethoxy-2-nitrostyryl)-1,3-diethyl-7-methylxanthine], the “MLD (minimum lethal dose)” value was above 300 mg/kg.
For `CCn1c(=O)c2[nH]c(/C=C/c3cccc(OC)c3[N+](=O)[O-])nc2n(CC)c1=O` [Compound 121, (E)-1,3-Diethyl-8-(3-methoxy-2-nitrostyryl)xanthine], the “MLD (minimum lethal dose)” value was above 300 mg/kg.
The same measure for `CCn1c(=O)c2c(nc(/C=C/c3cccc(OC)c3[N+](=O)[O-])n2C)n(CC)c1=O` [Compound 122, (E)-1,3-Diethyl-8-(3-methoxy-2-nitrostyryl)-7-methyl-xanthine]: above 100 mg/kg; for `CCOc1ccc(/C=C/c2nc3c([nH]2)c(=O)n(CC)c(=O)n3CC)cc1` [Compound 123, (E)-8-(4-Ethoxystyryl)-1,3-diethylxanthine]: above 100 mg/kg.
As for `CCCOc1ccc(/C=C/c2nc3c([nH]2)c(=O)n(CC)c(=O)n3CC)cc1` [Compound 125, (E)-1,3-Diethyl-8-(4-propoxystyryl)xanthine], the figure is above 100 mg/kg.
The same measure for `CCn1c(=O)c2[nH]c(/C=C/c3cccc(F)c3)nc2n(CC)c1=O` [Compound 127, (E)-1,3-Diethyl-8-(3-fluorostyryl)xanthine]: above 100 mg/kg; for `CCn1c(=O)c2c(nc(/C=C/c3cccc(F)c3)n2C)n(CC)c1=O` [Compound 128, (E)-1,3-Diethyl-8-(3-fluorostyryl)-7-methylxanthine]: above 300 mg/kg; for `CCn1c(=O)c2[nH]c(/C=C/c3cc(OC)cc(OC)c3)nc2n(CC)c1=O` [Compound 129, (E)-8-(3,5-Dimethoxystyryl)-1,3-diethylxanthine]: above 100 mg/kg.
Regarding `CCn1c(=O)c2[nH]c(/C=C/c3cccc(Cl)c3)nc2n(CC)c1=O` [Compound 131, (E)-8-(3-Chlorostyryl)-1,3-diethylxanthine], the “MLD (minimum lethal dose)” value is above 100 mg/kg.
`CCn1c(=O)c2c(nc(/C=C/c3cccc(Cl)c3)n2C)n(CC)c1=O` [Compound 132, (E)-8-(3-Chlorostyryl)-1,3-diethyl-7-methylxanthine]: the “MLD (minimum lethal dose)” value was above 300 mg/kg.
For the compound `CCn1c(=O)c2[nH]c(/C(C)=C/c3ccccc3)nc2n(CC)c1=O` [Compound 133, (E)-1,3-Diethyl-8-(α-methylstyryl)xanthine], the “MLD (minimum lethal dose)” value is given as above 100 mg/kg.
As for `CCn1c(=O)c2c(nc(/C(C)=C/c3ccccc3)n2C)n(CC)c1=O` [Compound 134, (E)-1,3-Diethyl-7-methyl-8-(α-methylstyryl)xanthine], the “MLD (minimum lethal dose)” value was above 300 mg/kg.
As for `CCn1c(=O)c2[nH]c(/C=C/c3ccc(C(F)(F)F)cc3)nc2n(CC)c1=O` [Compound 135, (E)-1,3-Diethyl-8-(4-trifluoromethylstyryl)xanthine], the “MLD (minimum lethal dose)” value is recorded as above 100 mg/kg.
As for `CCn1c(=O)c2c(nc(/C=C/c3ccc(C(F)(F)F)cc3)n2C)n(CC)c1=O` [Compound 136, (E)-1,3-Diethyl-7-methyl-8-(4-trifluoromethylstyryl)xanthine], the “MLD (minimum lethal dose)” value was above 300 mg/kg.
The same measure for `CCn1c(=O)c2[nH]c(/C=C/c3cccc(OC)c3)nc2n(CC)c1=O` [Compound 139, (E)-1,3-Diethyl-8-(3-methoxystyryl)xanthine]: above 100 mg/kg.
